In patent US10517889B2, “Modulators of SMAD7 expression” (Ionis Pharmaceuticals, Inc., priority 2017, dated 2019):
Strand notation (5' to 3'): a small letter for the sugar, then the base; units joined by * are phosphorothioate-linked, units joined directly phosphodiester-linked; [ ] holds rarer units or linkages, { } end groups; capitals alone tell only the bases. e = 2'-O-(2-methoxyethyl) (MOE); k = constrained ethyl (cEt); [5mC] = 5-methylcytosine; d = 2'-deoxy (DNA)

What was measured:
Format in all cases: cell-based
[1] = system: human SMAD7 mRNA; assay: Antisense inhibition of human SMAD7 mRNA expression in Hep3B cells by 5-10-5 MOE gapmers, single concentration, electroporation, RT-PCR (Example 1, Study 1 and 2)
Protocol: Antisense oligonucleotides were designed to target human SMAD7 mRNA and were tested for their effects on SMAD7 mRNA expression in vitro. Cultured Hep3B cells at a density of 20,000 cells per well were transfected using electroporation with antisense oligonucleotide ION 483663 (a 5-10-5 MOE gapmer), the sequence of which overlaps with ION 28453 (a 4-10-4 MOE gapmer) was included in these assays for comparison. ION 28453 has been previously disclosed in U.S. Pat. No. 6,159,697). After a treatment period of approximately 24 hours, RNA was isolated from the cells and SMAD7 mRNA levels were measured by quantitative real-time PCR. Primer probe set RTS5062 (forward sequence […], designated herein as SEQ ID NO: 11; reverse sequence […], designated herein as SEQ ID NO: 12; probe sequence […], designated herein as SEQ ID NO: 13) was used to measure human SMAD7 mRNA levels. SMAD7 mRNA levels were adjusted according to total RNA content, as measured by RIBOGREEN®. Results are presented as percent inhibition of SMAD7 mRNA expression, relative to untreated control cells.
The newly designed chimeric antisense oligonucleotides in the Tables below were designed as 5-10-5 MOE gapmers. The gapmers are 20 nucleosides in length, wherein the central gap segment comprises of ten 2′-deoxynucleosides and is flanked by wing segments on the 5′ direction and the 3′ direction comprising five nucleosides each. Each nucleoside in the 5′ wing segment and each nucleoside in the 3′ wing segment has a 2′-MOE modification. The internucleoside linkages throughout each gapmer are phosphorothioate (P═S) linkages. All cytosine residues throughout each gapmer are 5-methylcytosines.
“Start site” indicates the 5′-most nucleoside to which the gapmer is targeted in the human gene sequence. “Stop site” indicates the 3′-most nucleoside to which the gapmer is targeted human gene sequence.
Cultured Hep3B cells at a density of 20,000 cells per well were transfected using electroporation with 5,000 nM antisense oligonucleotide.
Cultured Hep3B cells at a density of 20,000 cells per well were transfected using electroporation with 15,000 nM antisense oligonucleotide. The antisense oligonucleotides were tested in a series of experiments that had similar culture conditions as described below.
Some of the oligonucleotides presented were complementary to SMAD7 mRNA sequences RefSeqNo. NM_001190821.1 (designated herein as SEQ ID NO: 3) or RefSeqNo. NM_001190822.1 (designated herein as SEQ ID NO: 4), and are presented in a separate table shown below.

[2] = system: human SMAD7 mRNA; assay: Antisense inhibition of human SMAD7 mRNA expression in Hep3B cells by 3-10-3 cEt gapmers, 10,000 nM, electroporation (Example 2); conditions: Hep3B cells, electroporation with 10,000 nM antisense oligonucleotide, approximately 24 hours, SMAD7 mRNA by RT-PCR (RTS5062), relative to untreated control cells
Procedure, shortened: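 Percent inhibition of SMAD7 mRNA, relative to untreated cells, after ~24 h exposure of electroporated Hep3B cells to 10,000 nM cEt gapmer; levels by qRT-PCR, corrected for total RNA.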

[3] = system: human SMAD7 mRNA; assay: Dose-dependent inhibition of human SMAD7 mRNA expression in Hep3B cells (Example 3, Study 1 and 2); conditions: electroporation; for % inhibition of SMAD7 mRNA expression: approximately 16 hours; for IC50: Study 2 (740-20000 nM)
Procedure, shortened: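 Hep3B cells, 20,000 per well, electroporated with antisense oligonucleotide at 0.31, 1.25, 5.00 or 20.00 μM (first series) or 0.74, 2.22, 6.67 or 20.00 μM (second series). After ~16 h, SMAD7 mRNA measured by RT-qPCR (RTS5062), normalised to RIBOGREEN total RNA. Percent inhibition vs untreated cells; IC50 derived.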

[4] = electroporation, 15,000 nM antisense oligonucleotide (Study 2), 5-10-5 MOE gapmers targeting SEQ ID NO: 1 and 2
[5] = Study 2, electroporation with 15,000 nM antisense oligonucleotide, 5-10-5 MOE gapmers targeting SEQ ID NO: 1 and 2
[6] = electroporation, 5,000 nM, approximately 24 hours, relative to untreated control cells, gapmers targeting SEQ ID NO: 1 and 2
[7] = electroporation with 15,000 nM antisense oligonucleotide (Study 2), 5-10-5 MOE gapmers targeting SEQ ID NO: 1 and 2
[8] = electroporation, 15,000 nM, approximately 24 hours, gapmers targeting SEQ ID NO: 3 and 4
[9] = electroporation, 15,000 nM, approximately 24 hours, relative to untreated control cells, gapmers targeting SEQ ID NO: 1 and 2
[10] = 740 nM, Study 2, relative to untreated control cells

483664 (antisense eT*eG*e[5mC]*eT*e[5mC]*dA*dG*d[5mC]*dT*d[5mC]*dA*d[5mC]*dG*d[5mC]*dT*e[5mC]*eT*eG*eT*e[5mC]) [compound 483664]
% inhibition of SMAD7 mRNA expression [1, 4]: 36%

483665 (antisense eG*e[5mC]*eG*eA*eA*d[5mC]*dA*dT*dG*dA*d[5mC]*d[5mC]*dT*d[5mC]*d[5mC]*eG*e[5mC]*eA*e[5mC]*eA) [compound 483665]
% Inhibition [1, 5]: 55%
% inhibition of SMAD7 mRNA expression [1, 6]: 10%

582468 (antisense eG*e[5mC]*e[5mC]*eA*eA*dT*dA*dT*d[5mC]*dA*dT*dA*dA*d[5mC]*d[5mC]*e[5mC]*eA*eA*eG*e[5mC]) [compound 582468]
% inhibition of SMAD7 mRNA expression [1, 5]: 4%
% inhibition of SMAD7 mRNA expression [1, 7]: 0%

771342 (antisense eT*e[5mC]*eA*eG*eT*dT*dG*dG*dT*dT*dT*dG*dA*dG*dA*eA*eA*eA*eT*e[5mC]) [compound 771342]
% inhibition of SMAD7 mRNA expression [1, 8]: 35%

771343 (antisense eG*eA*e[5mC]*eA*eG*dT*d[5mC]*dA*dG*dT*dT*dG*dG*dT*dT*eT*eG*eA*eG*eA) [compound 771343]
% inhibition of SMAD7 mRNA expression [1, 8]: 0%

771344 (antisense eA*eT*e[5mC]*eT*eG*dG*dA*d[5mC]*dA*dG*dT*d[5mC]*dA*dG*dT*eT*eG*eG*eT*eT) [compound 771344]
% inhibition of SMAD7 mRNA expression [1, 8]: 17%

771346 (antisense e[5mC]*eG*eT*eG*eA*dT*dT*d[5mC]*dT*d[5mC]*d[5mC]*dG*dT*dA*dT*eT*eT*eA*e[5mC]*eT) [compound 771346]
% Inhibition [1, 5]: 22%

771347 (antisense eT*eG*eG*eG*e[5mC]*d[5mC]*dA*d[5mC]*dT*dG*dG*dT*dG*dT*dT*e[5mC]*eG*eA*e[5mC]*eG) [compound 771347]
% Inhibition of SMAD7 mRNA [1, 7]: 32%
% inhibition of SMAD7 mRNA expression [1, 4]: 0%

771348 (antisense eG*eG*e[5mC]*e[5mC]*eA*d[5mC]*dG*dA*d[5mC]*dA*dG*dT*dA*dT*d[5mC]*eT*eG*eG*eG*e[5mC]) [compound 771348]
% inhibition of SMAD7 mRNA expression [1, 4]: 42%

771349 (antisense eA*e[5mC]*eT*e[5mC]*e[5mC]*dA*dA*dA*dG*dG*dT*dG*d[5mC]*dG*d[5mC]*eG*eG*e[5mC]*e[5mC]*eA) [compound 771349]
% inhibition of SMAD7 mRNA expression [1, 4]: 26%

771350 (antisense eT*eT*eT*eG*e[5mC]*d[5mC]*d[5mC]*d[5mC]*dA*dA*dA*dA*d[5mC]*dT*d[5mC]*e[5mC]*eA*eA*eA*eG) [compound 771350]
% Inhibition [1, 5]: 28%
% inhibition of SMAD7 mRNA expression [1, 6]: 68%

771351 (antisense e[5mC]*eT*e[5mC]*eT*e[5mC]*dT*dT*dT*dG*d[5mC]*d[5mC]*d[5mC]*d[5mC]*dA*dA*eA*eA*e[5mC]*eT*e[5mC]) [compound 771351]
% Inhibition [1, 5]: 11%

771352 (antisense eT*e[5mC]*e[5mC]*eA*eA*d[5mC]*dT*d[5mC]*dT*d[5mC]*dT*dT*dT*dG*d[5mC]*e[5mC]*e[5mC]*e[5mC]*eA*eA) [compound 771352]
% inhibition of SMAD7 mRNA expression [1, 9]: 54%

771353 (antisense eT*eT*e[5mC]*e[5mC]*eA*dT*d[5mC]*d[5mC]*dA*dA*d[5mC]*dT*d[5mC]*dT*d[5mC]*eT*eT*eT*eG*e[5mC]) [compound 771353]
% Inhibition [1, 5]: 0%

771354 (antisense e[5mC]*eG*eG*e[5mC]*e[5mC]*dT*dT*d[5mC]*d[5mC]*dA*dT*d[5mC]*d[5mC]*dA*dA*e[5mC]*eT*e[5mC]*eT*e[5mC]) [compound 771354]
% Inhibition [1, 5]: 39%

771355 (antisense e[5mC]*eA*eG*eT*eT*d[5mC]*dG*dG*d[5mC]*d[5mC]*dT*dT*d[5mC]*d[5mC]*dA*eT*e[5mC]*e[5mC]*eA*eA) [compound 771355]
% Inhibition of SMAD7 mRNA [1, 7]: 13%
% inhibition of SMAD7 mRNA expression [1, 4]: 0%

771356 (antisense eT*e[5mC]*e[5mC]*eA*eG*dT*dT*d[5mC]*dG*dG*d[5mC]*d[5mC]*dT*dT*d[5mC]*e[5mC]*eA*eT*e[5mC]*e[5mC]) [compound 771356]
% inhibition of SMAD7 mRNA expression [1, 8]: 40%

771357 (antisense eG*eA*eG*eT*e[5mC]*dA*dG*dG*d[5mC]*dT*d[5mC]*dA*dA*dT*dG*eA*eG*eA*e[5mC]*eT) [compound 771357]
% inhibition of SMAD7 mRNA expression [1, 4]: 16%

771358 (antisense eA*eG*eT*eT*eA*dA*dT*d[5mC]*dA*dT*dT*dA*d[5mC]*dT*d[5mC]*eG*eA*eG*eT*e[5mC]) [compound 771358]
% Inhibition [1, 5]: 36%
% inhibition of SMAD7 mRNA expression [1, 6]: 53%

771359 (antisense eG*eT*e[5mC]*eA*e[5mC]*d[5mC]*d[5mC]*dG*dT*d[5mC]*dT*dG*dG*dG*d[5mC]*eT*e[5mC]*e[5mC]*eG*eG) [compound 771359]
% Inhibition [1, 5]: 15%

771360 (antisense eA*e[5mC]*e[5mC]*eT*eT*dG*dT*d[5mC]*dA*d[5mC]*d[5mC]*d[5mC]*dG*dT*d[5mC]*eT*eG*eG*eG*e[5mC]) [compound 771360]
% inhibition of SMAD7 mRNA expression [1, 9]: 49%

771361 (antisense eA*e[5mC]*eA*eG*e[5mC]*dA*d[5mC]*d[5mC]*dT*dT*dG*dT*d[5mC]*dA*d[5mC]*e[5mC]*e[5mC]*eG*eT*e[5mC]) [compound 771361]
% Inhibition [1, 5]: 27%

771362 (antisense eG*eT*eA*eA*eG*dA*d[5mC]*dA*dG*dA*d[5mC]*d[5mC]*dA*d[5mC]*dA*eG*e[5mC]*eA*e[5mC]*e[5mC]) [compound 771362]
% Inhibition [1, 5]: 15%

830180 (antisense k[5mC]*kG*kT*dG*dT*dA*d[5mC]*d[5mC]*d[5mC]*dA*dG*d[5mC]*dT*kG*k[5mC]*k[5mC]) [compound 830180]
% Inhibition [2]: 62%
% inhibition of SMAD7 mRNA expression [3, 10]: 21%
% inhibition of SMAD7 mRNA expression ([3]; 2220 nM, Study 2): 39%
% inhibition of SMAD7 mRNA expression ([3]; 6670.0 nM, Study 2): 43%
% inhibition of SMAD7 mRNA expression ([3]; 20000.0 nM, Study 2): 64%
IC50 [3]: 8 µM

830207 (kA*kG*kG*dT*dG*dA*d[5mC]*dT*d[5mC]*dA*dT*d[5mC]*dA*kG*kG*k[5mC]; antisense) [compound 830207]
% Inhibition [2]: 80%
% inhibition of SMAD7 mRNA expression [3, 10]: 49%
% inhibition of SMAD7 mRNA expression ([3]; 2220 nM, Study 2): 74%
% inhibition of SMAD7 mRNA expression ([3]; 6670.0 nM, Study 2): 85%
% inhibition of SMAD7 mRNA expression ([3]; 20000.0 nM, Study 2): 93%
IC50 [3]: 1 µM

830208 (kA*kA*kG*dG*dT*dG*dA*d[5mC]*dT*d[5mC]*dA*dT*d[5mC]*kA*kG*kG; antisense) [compound 830208]
% Inhibition [2]: 57%
% inhibition of SMAD7 mRNA expression [3, 10]: 38%
% inhibition of SMAD7 mRNA expression ([3]; 2220 nM, Study 2): 70%
% inhibition of SMAD7 mRNA expression ([3]; 6670.0 nM, Study 2): 79%
% inhibition of SMAD7 mRNA expression ([3]; 20000.0 nM, Study 2): 90%
IC50 [3]: 1 µM
